Paper PMC11092803, “Heme allocation in eukaryotic cells relies on mitochondrial heme export through FLVCR1b to cytosolic GAPDH” (Research Square, 2024)

Target: T1, IDO1 (Homo sapiens, UniProt P14902)
T1 construct: full-length with FLAG tag, expressed in HEK293T cells; immunoprecipitated for 14C-heme count
Test: L-kynurenine in culture medium, p-dimethylaminobenzaldehyde colorimetry at […] nm
Type: cell-based
Conditions: intact HEK293T cells expressing IDO1; L-Trp 2 mM, with or without δ-ALA and ferric citrate, 5 h

T1 sequence (P14902 whole entry): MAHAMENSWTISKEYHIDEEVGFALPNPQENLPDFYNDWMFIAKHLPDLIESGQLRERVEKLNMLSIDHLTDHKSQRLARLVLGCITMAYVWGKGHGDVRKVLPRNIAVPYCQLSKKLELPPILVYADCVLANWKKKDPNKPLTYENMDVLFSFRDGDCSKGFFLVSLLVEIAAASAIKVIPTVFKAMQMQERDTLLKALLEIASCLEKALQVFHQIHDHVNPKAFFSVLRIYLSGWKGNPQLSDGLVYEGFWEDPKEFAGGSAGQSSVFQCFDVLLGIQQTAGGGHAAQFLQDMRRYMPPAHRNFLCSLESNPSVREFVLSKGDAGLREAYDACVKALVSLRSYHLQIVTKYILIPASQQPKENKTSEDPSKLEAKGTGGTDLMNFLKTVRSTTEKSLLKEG

**Q.** How did the “L-kynurenine in culture medium, p-dimethylaminobenzaldehyde colorimetry at 492 n” value turn out when `N[C@@H](Cc1c[nH]c2ccccc12)C(=O)O` [L-Trp] was run?
**A.** IDO1 activity was determined by colorimetric measure of the accumulated L-Kynurenine product
